In ChEMBL document CHEMBL6121007, “Design, synthesis and evaluation of pyrimidine derivatives as sedative-hypnotic agents” (Eur J Med Chem, 2025):
Activity calls are given as the source filed them. The calls are words filed in the database; no cut-off is given here.

How the values were obtained:
[1] = Drug concentration in male mouse brain at 10 mg/kg, ip measured after 2 hrs by LC-MS/MS analysis; assay type: ADME, organism-based; details: read-out: Ct
[2] = Drug concentration in male mouse plasma at 10 mg/kg, ip measured after 4 hrs by LC-MS/MS analysis; assay type: ADME, organism-based
[3] = MRT (0 to infinity) in male Sprague-Dawley rat at 0.5 mg/kg, iv measured after 2 to 720 mins by LC-MS/MS analysis; assay type: ADME, organism-based; details: in vivo, time 2-720 min
Mus musculus [4] = experiment: Upregulation of arachidonic acid metabolism related genes in hypothalamus of mouse at 2.5 mg/kg, ip measured after 30 mins by KEGG enrichment analysis relative to control; assay type: functional; details: 0.5 h
[5] = Upregulation of cAMP signaling pathway related genes in hypothalamus of mouse at 2.5 mg/kg, ip measured after 30 mins by KEGG enrichment analysis relative to control; assay type: functional; details: 0.5 h
[6] = Clearance in male Sprague-Dawley rat at 0.5 mg/kg, iv measured after 2 to 720 mins by LC-MS/MS analysis; assay type: ADME, organism-based; details: in vivo, time 2-720 min
Mus musculus [7] = experiment: Upregulation of parathyroid hormone synthesis related genes in hypothalamus of mouse at 2.5 mg/kg, ip measured after 30 mins by KEGG enrichment analysis relative to control; assay type: functional; details: 0.5 h
[8] = Upregulation of human T-cell leukemia virus 1 infection related genes in hypothalamus of mouse at 2.5 mg/kg, ip measured after 30 mins by KEGG enrichment analysis relative to control; assay type: functional; details: 0.5 h
[9] = Upregulation of herpes simplex virus 1 infection related genes in hypothalamus of mouse at 2.5 mg/kg, ip measured after 30 mins by KEGG enrichment analysis relative to control; assay type: functional; details: 0.5 h
[10] = AUC (0 to t) in male Sprague-Dawley rat at 2.5 mg/kg, ip measured after 5 to 1440 mins by LC-MS/MS analysis; assay type: ADME, organism-based; details: in vivo, time 5-1440 min
[11] = Drug concentration in male mouse plasma at 10 mg/kg, ip measured after 1 hrs by LC-MS/MS analysis; assay type: ADME, organism-based
[12] = AUC (0 to t) in male Sprague-Dawley rat at 0.5 mg/kg, iv measured after 2 to 720 mins by LC-MS/MS analysis; assay type: ADME, organism-based; details: in vivo, time 2-720 min
Mus musculus [13] = experiment: Upregulation of cell cycle related genes in hypothalamus of mouse at 2.5 mg/kg, ip measured after 30 mins by KEGG enrichment analysis relative to control; assay type: functional; details: 0.5 h
Mus musculus [14] = experiment: Sedative-hypnotic activity in mouse assessed as decrease in number of square crossing at 0.1 to 0.5 mg/kg, ip administrated as single dose and measured within 3 mins by open field test; assay type: functional, organism-based; details: dose 0.1-0.5 mg/kg
Mus musculus [15] = experiment: Upregulation of linoleic acid metabolism related genes in hypothalamus of mouse at 2.5 mg/kg, ip measured after 30 mins by KEGG enrichment analysis relative to control; assay type: functional; details: 0.5 h
[16] = Cmax in male Sprague-Dawley rat at 0.5 mg/kg, iv measured after 2 to 720 mins by LC-MS/MS analysis; assay type: ADME, organism-based; details: in vivo, time 2-720 min
Mus musculus [17] = experiment: Upregulation of serotonergic synapse related genes in hypothalamus of mouse at 2.5 mg/kg, ip measured after 30 mins by KEGG enrichment analysis relative to control; assay type: functional; details: 0.5 h
[18] = Cmax in male Sprague-Dawley rat at 2.5 mg/kg, ip measured after 5 to 1440 mins by LC-MS/MS analysis; assay type: ADME, organism-based; details: in vivo, time 5-1440 min
Mus musculus [19] = experiment: Upregulation of glycine metabolism related genes in hypothalamus of mouse at 2.5 mg/kg, ip measured after 30 mins by KEGG enrichment analysis relative to control; assay type: functional; details: 0.5 h
Mus musculus [20] = experiment: Sedative-hypnotic activity in mouse assessed as latency time of first step out of center square at 50 mg/kg, ip administrated as single dose and measured after 30 mins by open field test; assay type: functional, organism-based
Mus musculus [21] = experiment: Sedative-hypnotic activity in mouse assessed as decrease in grip strength score at 0.1 to 2.5 mg/kg, ip administrated as single dose and measured after 30 mins by grip strength test; assay type: functional, organism-based; details: dose 0.1-2.5 mg/kg
Mus musculus [22] = experiment: Sedative-hypnotic activity in pentobarbital-induced mouse assessed as increase in sleep duration at 2.5 mg/kg, ip administrated as single dose; assay type: functional, organism-based
Mus musculus [23] = experiment: Upregulation of apoptosis related genes in hypothalamus of mouse at 2.5 mg/kg, ip measured after 30 mins by KEGG enrichment analysis relative to control; assay type: functional; details: 0.5 h
[24] = Bioavailability in male Sprague-Dawley rat at 2.5 mg/kg, ip measured after 5 to 1440 mins by LC-MS/MS analysis; assay type: ADME, organism-based; details: in vivo, time 5-1440 min
[25] = Upregulation of FoxO signaling pathway related genes in hypothalamus of mouse at 2.5 mg/kg, ip measured after 30 mins by KEGG enrichment analysis relative to control; assay type: functional; details: 0.5 h
Mus musculus [26] = experiment: In vivo activation of cAMP/PKA/CREB signaling pathway in mouse assessed as increase in cAMP level in hypothalamus at 2.5 mg/kg, ip measured after 30 mins by ELISA analysis; assay type: functional, organism-based
Mus musculus [27] = experiment: In vivo activation of cAMP/PKA/CREB signaling pathway in mouse assessed as increase in CREB phosphorylation in hypothalamus at 2.5 mg/kg, ip measured after 30 mins by Western blot analysis; assay type: functional, organism-based
[28] = Upregulation of cGMP-PKG signaling pathway related genes in hypothalamus of mouse at 2.5 mg/kg, ip measured after 30 mins by KEGG enrichment analysis relative to control; assay type: functional; details: 0.5 h
Mus musculus [29] = experiment: Upregulation of calcium signaling pathway related genes in hypothalamus of mouse at 2.5 mg/kg, ip measured after 30 mins by KEGG enrichment analysis relative to control; assay type: functional; details: 0.5 h
[30] = Upregulation of Rap1 signaling pathway related genes in hypothalamus of mouse at 2.5 mg/kg, ip measured after 30 mins by KEGG enrichment analysis relative to control; assay type: functional; details: 0.5 h
[31] = AUC (0 to infinity) in male Sprague-Dawley rat at 0.5 mg/kg, iv measured after 2 to 720 mins by LC-MS/MS analysis; assay type: ADME, organism-based; details: in vivo, time 2-720 min
Mus musculus [32] = experiment: Upregulation of pancreatic secretion related genes in hypothalamus of mouse at 2.5 mg/kg, ip measured after 30 mins by KEGG enrichment analysis relative to control; assay type: functional; details: 0.5 h
[33] = Apparent volume of distribution in male Sprague-Dawley rat at 2.5 mg/kg, ip measured after 5 to 1440 mins by LC-MS/MS analysis; assay type: ADME, organism-based; details: in vivo, time 5-1440 min
[34] = Upregulation of MAPK signaling pathway related genes in hypothalamus of mouse at 2.5 mg/kg, ip measured after 30 mins by KEGG enrichment analysis relative to control; assay type: functional; details: 0.5 h
[35] = Upregulation of cushing syndrome related genes in hypothalamus of mouse at 2.5 mg/kg, ip measured after 30 mins by KEGG enrichment analysis relative to control; assay type: functional; details: 0.5 h
Mus musculus [36] = experiment: Sedative-hypnotic activity in pentobarbital-induced mouse assessed as asleep rate at 0.5 to 0.1 mg/kg, ip preadministered with compound for 20 mins followed by pentobarbital administration and measured within 15 mins (reference value: 12.5 %); assay type: functional; details: dose 0.5-0.1 mg/kg, time <= 35 min, at 0.1 to 0.5 mg/kg
[37] = Ratio of drug concentration in male mouse brain to plasma at 10 mg/kg, ip measured after 2 hrs by LC-MS/MS analysis; assay type: ADME, organism-based; details: brain and plasma, read-out: BPR

Compound CCn1c2ccccc2c2cc(Nc3ccnc(Nc4ccc(C)c(OC)c4)n3)ccc21 has a concentration at 2 h [1] of 23 ng/mL, a concentration at 4 h [2] of 64.7 ng/mL and an MRT inf [3] of 3.47 h. The Activity (Mus musculus [4]) was 2.89%, the Activity [5] was 4.62% and the clearance [6] was 9.53 mL/min/kg. For the same compound, the Activity (Mus musculus [7]) was 4.05%, the Activity [8] was 4.62% and the Activity [9] was 5.78%. The AUC(0-t) [10] was 3180 ng·h/mL, the concentration at 1 h [11] was 75 ng/mL and the AUC(0-t) [12] was 801 ng·h/mL. For the same compound, the Activity (Mus musculus [13]) was 2.89%, the Activity (Mus musculus [14]) was “Active; No Significant Difference Compared With Control Mouse” and the Activity (Mus musculus [15]) was 1.73%. The Cmax [16] was 893 ng/mL, the Activity (Mus musculus [17]) was 4.05% and the Cmax [18] was 281 ng/mL. The Activity (Mus musculus [19]) was 1.73%, the Activity (Mus musculus [20]) was “Active; Significant Effect Observed” and the Activity (Mus musculus [21]) was “Active”. For the same compound, the Activity (Mus musculus [22]) was “Active”, the Activity (Mus musculus [23]) was 3.47% and the bioavailability [24] was 74.5%. The Activity [25] was 4.62%, the Activity (Mus musculus [26]) was “Active” and the Activity (Mus musculus [27]) was “Active”. For the same compound, the Activity [28] was 2.89%, the Activity (Mus musculus [29]) was 4.62% and the Activity [30] was 3.47%. The AUC(0-inf) [31] was 885 ng·h/mL, the Activity (Mus musculus [32]) was 4.05% and the “Vd(app)” value [33] was 5.023 L/kg. For the same compound, the Activity [34] was 6.36%, the Activity [35] was 4.05% and the Activity (Mus musculus [36]) was 75%. The Kp at 2 h [37] was 0.38.
